Changes are numbered by the printed parent chain. Names may count otherwise. “Also recorded” adds a separate entry of the source. Read-outs that look alike come from different tables or passages of the source.
T1: AtHNL (Arabidopsis thaliana, UniProt Q9LFT6)
T1 construct: made in house; host or cells: E. coli BL21(DE3), plasmid pAtHNL (pET28a, NcoI/XhoI)
T1 sequence (Q9LFT6 1-258): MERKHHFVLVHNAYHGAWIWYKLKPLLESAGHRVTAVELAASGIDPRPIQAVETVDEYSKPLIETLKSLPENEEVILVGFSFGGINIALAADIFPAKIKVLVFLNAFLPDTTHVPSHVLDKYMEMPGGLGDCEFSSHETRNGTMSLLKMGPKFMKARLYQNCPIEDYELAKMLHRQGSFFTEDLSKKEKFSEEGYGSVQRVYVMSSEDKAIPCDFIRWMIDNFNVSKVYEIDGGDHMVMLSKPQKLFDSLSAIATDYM

B1: AtHNL: hydroxynitrile lyase from Arabidopsis thaliana, polypeptide of the invention, SEQ ID NO: 1 (protein, listed as Arabidopsis thaliana)
chain: T1 sequence (Q9LFT6 1-258)
B2: Y14C: AtHNL (SEQ ID NO: 1) with tyrosine 14 exchanged for cysteine (protein, listed as Arabidopsis thaliana)
chain: T1 sequence (Q9LFT6 1-258) with Y14C
B3: S81A: AtHNL (SEQ ID NO: 1) with point mutation S81A, catalytic triad residue exchanged (protein, listed as Arabidopsis thaliana)
chain: T1 sequence (Q9LFT6 1-258) with S81A
B4: L129W: AtHNL (SEQ ID NO: 1) with leucine 129 exchanged for tryptophan (protein, listed as Arabidopsis thaliana)
chain: T1 sequence (Q9LFT6 1-258) with L129W
B5: D208N: AtHNL (SEQ ID NO: 1) with point mutation D208N, catalytic triad residue exchanged (protein, listed as Arabidopsis thaliana)
chain: T1 sequence (Q9LFT6 1-258) with D208N
B6: N12T: AtHNL (SEQ ID NO: 1) with asparagine 12 exchanged for threonine, preferably as double mutation with Y14C (protein, listed as Arabidopsis thaliana)
chain: T1 sequence (Q9LFT6 1-258) with N12T
B7: H236F: AtHNL (SEQ ID NO: 1) with point mutation H236F, catalytic triad residue exchanged (protein, listed as Arabidopsis thaliana)
chain: T1 sequence (Q9LFT6 1-258) with H236F

Key:
Assay type in all cases: biochemical
AtHNL [1] = biological target: T1, AtHNL
AtHNL [2] = biological target: T1, AtHNL; assay: Cleavage of mandelonitrile, determination of liberated benzaldehyde (cell test); conditions: cleavage reaction of cyanohydrin by AtHNL, citrate-phosphate buffer pH 5
Protocol: Ia) Cleavage of Mandelonitrile(=Benzaldehyde Cyanohydrin), Determination of Liberated Benzaldehyde (Cell Test):
The protocol employed was based on the test described by Bauer et al in 1999 and was only modified slightly. 700 μl of citrate-phosphate buffer, pH 5 (48.5 mL 0.1M citric acid, 51.5 mL 0.2 M dipotassium hydrogen phosphate, qsp 100 ml water) was mixed with 100 μl of enzyme sample in a quartz glass cell and the reaction was started with 200 μl of mandelonitrile solution (60 mM in citrate-phosphate buffer, pH 3.5 (1.82 mL 0.1 M citric acid, 1.06 mL 0.1 M disodium hydrogen phosphate, qsp 100 mL water). The increase in the extinction at 280 nm was monitored for 2 min. It was proportional to the benzaldehyde concentration in the sample. Self-degradation of the cyanohydrin was determined in a control sample without enzyme and subtracted from the values measured for the enzyme sample. In order to determine the remaining activity in the course of the stability tests described in Example 5d, a slightly altered procedure was used: 870 μl of citrate buffer (50 mM, pH 4) was supplemented with 30 μl of enzyme sample, the reaction was started by adding 100 μl of mandelonitrile (60 mM in 50 mM of citrate buffer, pH 2) and monitored for 2 minutes at 280 nm. […] The enzyme activity is, however, much lower with this procedure.

AtHNL [3] = biological target: T1, AtHNL; conditions: pH 5
[4] = HNL activity test of cloned and expressed Arabidopsis proteins resembling MeHNL; conditions: cloned, expressed heterologously in E. coli; listed as At5g10300
Source text: The Arabidopsis thaliana plant (mouse-ear cress) is a model organism (accessible genome, short generation period) and thus has been comprehensively investigated. The genome has been completely sequenced and recorded in sequence databases. Examples of such databases are, for example, the “Genbank” as a collection of all published sequences, or TAIR as a database restricted to a single organism (in this case Arabidopsis). Because of the great strides made in molecular biology, many new sequences are being input into the appropriate databases than can be individually assessed and described. Thus, until now genes which have been identified as true genes but which have not been further investigated have automatically been ascribed types by appropriate computer algorithms because of their similarities to known sequences. Whether the function stated in this description is true, however, must be individually ascertained for each protein. […] The increase in the extinction at 280 nm was monitored for 2 min. […] Self-degradation of the cyanohydrin was determined in a control sample without enzyme and subtracted from the values measured for the enzyme sample. […]

[5] = Activity of AtHNL preparations from fed batch fermentation
[6] = Demonstration of stereoselectivity (chiral gas chromatography and cleavage test with enantiomerically pure benzaldehyde cyanohydrin)
[7] = Point mutations in SEQ ID NO: 1 (AtHNL variants)
[8] = after Q-Sepharose, desalting and lyophilization

Molecule | Transformation (%) (AtHNL [1]; pH 4) | ee (R) (%) (AtHNL [1]) | Transformation (%) (AtHNL [1]) | further results
COc1ccc(C=O)cc1 [4-methoxybenzaldehyde] | 22.6 | – | – | –
CC(=O)CCc1ccccc1 [Benzyl acetone] | 9 | 40 | – | –
CC(=O)c1ccccc1F [compound 28] | – | 95 | 8 | –
CC(=O)CCc1ccccc1 [compound 29] | – | – | 1 | –
O=Cc1cccc(Oc2ccccc2)c1 [3-phenoxybenzaldehyde] | 73 | 78 | – | –
N#CC(O)c1ccccc1 (centres unmarked) [Benzaldehyde cyanohydrin] | – | – | – | Specify activity (U/mg), Benzaldehyde Test (see Ia above) (AtHNL [2]): 12.5 U/mg
CCC(O)C#N (centres unmarked) [Propionaldehyde cyanohydrin] | – | – | – | Specify activity (U/mg), HCN-Test (see Ib above) (AtHNL [3]): <0.05 U/mg
CCC(C)=O [2-butanone] | >95 | 0 | – | –
CC(=O)c1ccccc1 [compound 27] | – | – | 7 | –
O=CCc1ccccc1 [Phenylacetaldehyde] | 90 | 71 | – | –
CCCCCC=O [compound 20] | – | 98 | 99 | –
O=Cc1ccc(Cl)cc1 [4-chlorobenzaldehyde] | 98 | 95 | – | –
O=CCCc1ccccc1 [compound 18] | – | 68 | 99 | –
CCCCCC=O [Hexanal] | 98 | – | – | –
CCCCCCC(C)=O [2-octanone] | 0 | – | – | –
CCCCC(C)=O [compound 24] | – | 95 | 48 | –
CCCC(C)=O [2-pentanone] | >95 | 0 | – | –
CCCCCCCCC(C)=O [compound 25] | – | – | 2 | –
CCCCCCCC=O [Octanal] | 89 | – | – | –

Molecule | Transformation (%) (AtHNL [1]; pH 4) | ee (R) (%) (AtHNL [1]) | Transformation (%) (AtHNL [1]) | further results
CCCCCCCCCC=O [compound 21] | – | >95 | 56 | –
C=CCc1ccccc1 [compound 17] | – | 96 | 97 | –
CCCCCC(C)=O [2-heptanone] | 9 | 9 | – | –
CC(=O)CCC=C(C)C [compound 23] | – | – | 0 | –
CCCCC(C)=O [2-hexanone] | – | 0 | – | –
CCCCCCC=O [Heptanal] | >99.9 | >80 | – | –
O=C1CCCCC1 [compound 26] | – | – | 94 | –
CCC/C=C/C=O [compound 22] | – | – | 53 | –
CC(O)C#N (centres unmarked) [Acetaldehyde cyanohydrin] | – | – | – | Specify activity (U/mg), HCN-Test (see Ib above) (AtHNL [3]): <0.05 U/mg
O=Cc1ccccc1 [Benzaldehyde] | >99.9 | – | – | –
O=Cc1cccs1 [compound 19] | – | – | 68 | –
B1 | – | – | – | HNL activity (Remarks/misc) [4]: high activity; also recorded: HNL activity (a poly-; activity per lyophilisate [5, 8]: 2.5 U/mg of lyophilisate; specific activity [5, 8]: approximately 40 U/mg protein; specific activity ([5]; unrefined extract): 13.3 U/mg; volumetric activity ([5]; unrefined extract): approx 800 U/ml; stereoselectivity [6]: Only the (R) enantiomer formed or was transformed
B2 | – | – | – | effect of the point mutation on substrate spectrum / enantioselectivity [7]: reversal of enantioselectivity
B3 | – | – | – | activity of the polypeptide after exchange of catalytic triad residues [7]: no longer exhibited any activity
B4 | – | – | – | effect of the point mutation on substrate spectrum / enantioselectivity [7]: reversal of enantioselectivity
B5 | – | – | – | activity of the polypeptide after exchange of catalytic triad residues [7]: no longer exhibited any activity
B6 | – | – | – | effect of the point mutation on substrate spectrum / enantioselectivity [7]: broadening of substrate spectrum to ketones
B7 | – | – | – | activity of the polypeptide after exchange of catalytic triad residues [7]: no longer exhibited any activity

— patent publication US8940516B2, “Method for the synthesis of chiral cyanohydrins via a hydroxynitrile lyase from brassicaceae” (Evocatal GmbH, priority 2006, dated 2015)
